Assay results reported in patent US20090169585A1, “Resveratrol-Containing Compositions And Their Use In Modulating Gene Product Concentration Or Activity” (Resveratrol Partners, LLC, priority 2003, published 2009).
Like-named read-outs stand apart in the source and are kept apart here.

Legend:
rhabdomyosarcoma cells = details: low dosage; cited from earlier work
injected tumors = details: mice with injected tumors; cited from earlier work
[1] = tested on: genes of the oxidative phosphorylation pathway (GO:0006119); experiment: Cardiac gene expression array: oxidative phosphorylation genes; type: in vivo, mice; details: mouse cardiac tissue vs control
[2] = tested on: expression of 20,341 genes in brain tissue; experiment: Gene expression in brain tissue; type: in vivo, mice
[3] = tested on: genes involved in 220 biological processes; experiment: Biochemical pathways / biological processes affected (Table 5); type: in vivo, mice
[4] = 1100 IU, 4-year period; cited from earlier work
breast cancer cells = details: cited from earlier work
[5] = tested on: human umbilical vein epithelial cells; details: of 10,000 genes probed; cited from earlier work
[6] = 2000 IU per day; cited from earlier work
[7] = 3500 IU per day; cited from earlier work

## O=P(O)(O)OC1C(OP(=O)(O)O)C(OP(=O)(O)O)C(OP(=O)(O)O)C(OP(=O)(O)O)C1OP(=O)(O)O (centres unmarked) [IP6, (2,3,4,5,6-pentaphosphonooxycyclohexyl) dihydrogen phosphate]
Rhabdomyosarcoma cells
  suppression of growth of rhabdomyosarcoma cells: 50%
Injected tumors
  tumor size vs non-treated mice: 50 times smaller

## Oc1ccc(/C=C/c2cc(O)cc(O)c2)cc1 [resveratrol, 3,4′,5-trihydroxy-trans-stilbene]
[1]
  FC Cox4i2: 1.50
  FC Ndufaf1: −1.20
  FC Ndufc1: 1.20
  FC Ndufc2: −1.30
  FC Ndufs2: 1.10
[2]; animals receiving only this treatment, P<0.01
  number of genes exhibiting altered expression: 424 genes
[2]; resveratrol and calorie reduced diet
  number of genes exhibiting altered expression: 10 genes
[3]; GO: 0000723, 17 genes in series, P<0.05
  Genes changed: Telomere Maintenance: 3
[3]; GO: 0001958, 8 genes in series, P<0.05
  Genes changed: Endochondral Ossification: 2
[3]; GO: 0005975, 316 genes in series, P<0.05
  Genes changed: Carbohydrate Metabolic Process: 21
[3]; GO: 0005976, 42 genes in series, P<0.05
  Genes changed: Polysaccharide Metabolic Process: 9
[3]; GO: 0005977, 31 genes in series, P<0.05
  Genes changed: Glycogen Metabolic Process: 7
[3]; GO: 0006091, 390 genes in series, P<0.05
  Genes changed: Generation Of Precursor Metabolites And Energy: 24
[3]; GO: 0006112, 35 genes in series, P<0.05
  Genes changed: Energy Reserve Metabolic Process: 7
[3]; GO: 0006281, 178 genes in series, P<0.05
  Genes changed: DNA Repair: 13
[3]; GO: 0006353, 6 genes in series, P<0.05
  Genes changed: Transcription Termination: 2
[3]; GO: 0006412, 338 genes in series, P<0.05
  Genes changed: Translation: 25
[3]; GO: 0006413, 40 genes in series, P<0.05
  Genes changed: Translational Initiation: 6
[3]; GO: 0006446, 20 genes in series, P<0.05
  Genes changed: Regulation Of Translational Initiation: 4
[3]; GO: 0006457, 124 genes in series, P<0.05
  Number of genes affected: Protein Folding: 13
[3]; GO: 0006511, 109 genes in series, P<0.05
  Genes changed: Ubiquitin-Dependent Protein Catabolic Process: 9
[3]; GO: 0006512, 356 genes in series, P<0.05
  Genes changed: Ubiquitin Cycle: 27
[3]; GO: 0006596, 5 genes in series, P<0.05
  Genes changed: Polyamine Biosynthetic Process: 2
[3]; GO: 0006605, 161 genes in series, P<0.05
  Genes changed: Protein Targeting: 12
[3]; GO: 0006625, 5 genes in series, P<0.05
  Genes changed: Protein Targeting To Peroxisome: 2
[3]; GO: 0006825, 9 genes in series, P<0.05
  Genes changed: Copper Ion Transport: 3
[3]; GO: 0006886, 357 genes in series, P<0.05
  Genes changed: Intracellular Protein Transport: 26
[3]; GO: 0006888, 16 genes in series, P<0.05
  Genes changed: ER To Golgi Vesicle-Mediated Transport: 3
[3]; GO: 0006919, 16 genes in series, P<0.05
  Genes changed: Caspase Activation: 3
[3]; GO: 0006974, 217 genes in series, P<0.05
  Genes changed: Response To DNA Damage Stimulus: 15
[3]; GO: 0006983, 5 genes in series, P<0.05
  Genes changed: ER Overload Response: 2
[3]; GO: 0006996, 897 genes in series, P<0.05
  Number of genes affected: Organelle Organization And Biogenesis: 53
[3]; GO: 0007010, 403 genes in series, P<0.05
  Number of genes affected: Cytoskeleton Organization And Biogenesis: 26
[3]; GO: 0007017, 155 genes in series, P<0.05
  Genes changed: Microtubule-Based Process: 12
[3]; GO: 0007018, 72 genes in series, P<0.05
  Number of genes affected: Microtubule-Based Movement: 9
[3]; GO: 0007091, 8 genes in series, P<0.05
  Genes changed: Mitotic Metaphase/Anaphase Transition: 2
[3]; GO: 0007143, 8 genes in series, P<0.05
  Genes changed: Female Meiosis: 2
[3]; GO: 0007178, 75 genes in series, P<0.05
  Genes changed: Transmembrane Receptor Protein Serine/Threonine Kinase Signaling Pathway: 7
[3]; GO: 0007264, 320 genes in series, P<0.05
  Genes changed: Small Gtpase Mediated Signal Transduction: 22
[3]; GO: 0008064, 30 genes in series, P<0.05
  Number of genes affected: Regulation Of Actin Polymerization And/Or Depolymerization: 4
[3]; GO: 0008104, 663 genes in series, P<0.05
  Genes changed: Protein Localization: 38
[3]; GO: 0008154, 39 genes in series, P<0.05
  Number of genes affected: Actin Polymerization And/Or Depolymerization: 6
[3]; GO: 0008299, 19 genes in series, P<0.05
  Genes changed: Isoprenoid Biosynthetic Process: 3
[3]; GO: 0008380, 162 genes in series, P<0.05
  Genes changed: RNA Splicing: 12
[3]; GO: 0009058, 979 genes in series, P<0.05
  Genes changed: Biosynthetic Process: 60
[3]; GO: 0009059, 525 genes in series, P<0.05
  Genes changed: Macromolecule Biosynthetic Process: 35
[3]; GO: 0015031, 581 genes in series, P<0.05
  Genes changed: Protein Transport: 38
[3]; GO: 0019941, 111 genes in series, P<0.05
  Genes changed: Modification-Dependent Protein Catabolic Process: 9
[3]; GO: 0030041, 17 genes in series, P<0.05
  Number of genes affected: Actin Filament Polymerization: 3
[3]; GO: 0030832, 31 genes in series, P<0.05
  Number of genes affected: Regulation Of Actin Filament Length: 4
[3]; GO: 0033554, 14 genes in series, P<0.05
  Genes changed: Cellular Response To Stress: 3
[3]; GO: 0043085, 40 genes in series, P<0.05
  Genes changed: Positive Regulation Of Enzyme Activity: 5
[3]; GO: 0043280, 17 genes in series, P<0.05
  Genes changed: Positive Regulation Of Caspase Activity: 3
[3]; GO: 0043281, 27 genes in series, P<0.05
  Genes changed: Regulation Of Caspase Activity: 5
[3]; GO: 0044249, 710 genes in series, P<0.05
  Genes changed: Cellular Biosynthetic Process: 45
[3]; GO: 0044262, 221 genes in series, P<0.05
  Genes changed: Cellular Carbohydrate Metabolic Process: 18
[3]; GO: 0045184, 610 genes in series, P<0.05
  Genes changed: Establishment Of Protein Localization: 38
[3]; GO: 0045351, 6 genes in series, P<0.05
  Genes changed: Interferon Type I Biosynthetic Process: 2
[3]; GO: 0045454, 40 genes in series, P<0.05
  Genes changed: Cell Redox Homeostasis: 6
[3]; GO: 0045577, 8 genes in series, P<0.05
  Genes changed: Regulation Of B Cell Differentiation: 2
[3]; GO: 0046330, 8 genes in series, P<0.05
  Genes changed: Positive Regulation Of JNK Cascade: 2
[3]; GO: 0046907, 523 genes in series, P<0.05
  Number of genes affected: Intracellular Transport: 43
[3]; GO: 0048193, 37 genes in series, P<0.05
  Genes changed: Golgi Vesicle Transport: 6
[3]; GO: 0050673, 30 genes in series, P<0.05
  Genes changed: Epithelial Cell Proliferation: 4
[3]; GO: 0050790, 241 genes in series, P<0.05
  Number of genes affected: Regulation Of Catalytic Activity: 21
[3]; GO: 0051016, 17 genes in series, P<0.05
  Genes changed: Barbed-End Actin Filament Capping: 3
[3]; GO: 0051258, 32 genes in series, P<0.05
  Number of genes affected: Protein Polymerization: 6
[3]; GO: 0051649, 653 genes in series, P<0.05
  Number of genes affected: Establishment Of Cellular Localization: 45
[3]; resveratrol to calorie restricted mice
  biological processes with affected genes: failed to affect any genes in any of these processes
[3]; this treatment, P<0.05
  share of the 220 biological processes with affected genes: 10%

## C=C1CC[C@H](O)C/C1=C/C=C1\CCC[C@]2(C)[C@@H]([C@H](C)CCCC(C)C)CC[C@@H]12 [vitamin D3, cholecalciferol]
[4]
  reduction in cancer risk: 60-77%
Breast cancer cells; higher concentrations of vitamin D3 alone, lab dish
  reduction of the number of breast cancer cells: about 25%
Breast cancer cells; higher concentrations of vitamin D3 combined with resveratrol
  reduction of the number of breast cancer cells: 50%
Breast cancer cells; low-dose vitamin D3 alone
  breast tumor cell growth: does not reduce breast tumor cell growth
Breast cancer cells; low-dose vitamin D3 combined with resveratrol
  decline of tumor cell numbers: 40%

## O=c1c(O)c(-c2ccc(O)c(O)c2)oc2cc(O)cc(O)c12 [quercetin, 3,3′,4′,5,7-pentahydroxy-2-phenylchromen-4-one]
[5]
  genes with greater than 2-fold down-regulation: 363 genes
  genes with greater than 2-fold up-regulation: 233 genes

## COc1cc(/C=C/C(=O)O)ccc1O [ferulic acid]
[5]
  genes with greater than 2-fold down-regulation: 363 genes
  genes with greater than 2-fold up-regulation: 233 genes

## vitamin D
[6]
  risk of colon cancer: halved
[7]
  risk for breast cancer: halved
